In patent US20140371280A1, “Method of treating diabetic peripheral neuropathy through amendment of pre-neuronal diabetic coagulative micro-angiopathy and neuronal deficiency of mitochondrial ATP production, and through induction of neuronal regeneration” (priority 2013, published 2014):

Experiments:
neoangiogenesis = settings: yes/no; cited from earlier work
insulin sensitization = settings: yes/no; cited from earlier work
arterioles = settings: yes/no; cited from earlier work
platelet aggregation = settings: yes/no; cited from earlier work
[1] = system: diabetic peripheral neuropathy; assay: Clinical case: diabetic person with DPN of stocking-glove pattern and maceration in the big toe; format: in vivo, human patient
Description: An elderly patient of DPN with advanced DM of hyperglycemia, hypoinsulinemia, and HgbA1C elevated to 7.5%, presented themself with a typical stocking-glove pattern of DPN accompanied by maceration in the left big toe. A bitherapy of SAG+ALC halted their DPN.
The present DPN-relieving invention includes mainly four parts: (1) rescue with SAG-ALC of the tormenting DPN distress of pain, cold sensation, and maceration in the stocking-glove pattern; (2) expansion of the SAG-ALC regimen to include ALA; (3) extended use of the SAG+ALC+ALA principle for prevention of recurrence and maintenance; and (4) an extended use of the principle for induction of neuronal regeneration with SAG+ALC+ALA. • (1) Prompt halt of DPN symptoms with the application of SAG in order to amend the pre-neuronal coagulative microangiopathy and with ALC to amend the neuronal mitochondrial fatty acid transport across the carnithine window so as to help generating ATP through β-oxidation of fatty acids: the SAG+ALC principle. • A person with a 10-year history of DM developed signs and symptoms of DPN of the stocking-glove pattern and maceration in the big toe in the depth. […] The dosage could be 100 to 200 mg three times a day unless contraindicated by hemorrhagic diathesis. They were relieved of the distress but limitedly for 2-3 hours of post-dose. The patient was greatly depressed to learn that neuronal loss that could have already taken place might not be recovered with the SAG (Srinivasan et al. 2000)). • ALC was added at 1500 mg per day. The dosage range could be 500 to 4500 mg per day in the hope of eventual induction of neuronal regeneration (Tagliatela et al. 1991; Ishii et al. 2000). […] Thus, the SAG and ALC appeared to work synergistically. Within 2 months of this combination treatment, the soft swelling due to maceration in the depth of the big toe resolved (FIG. 1e). This ALC-SAG combination therapy may be continued as long as one's DPN status persists. […]

| Molecule | Neo-angiogenesis (neoangiogenesis) | Insulin-sensitization (insulin sensitization) | Arteriolar dilation (arterioles) | Anti-platelet Aggregation (platelet aggregation) | Duration of relief of distress post-dose ([1]; SAG 600 mg per day, monotherapy) [h] | Duration of halt of DPN's pain and cold intolerance per dose ([1]; each 200 mg dose of SAG, monotherapy) [h] | Effect on DPN symptoms (pain, cold sensation, numbness) ([1]; patient, SAG 600 mg, ALC 1500 mg, ALA 600 mg per day, EPR 100 mg three times a day, as combined) |
| --- | --- | --- | --- | --- | --- | --- | --- |
| CC/C=C\C/C=C\C/C=C\C/C=C\C/C=C\CCCC(=O)OCC [Epadel, ethyl icosapentate] | No | No | Yes | Yes |  |  |  |
| CC1CNc2c(cccc2S(=O)(=O)N[C@@H](CCCNC(=N)N)C(=O)N2CC[C@@H](C)C[C@@H]2C(=O)O)C1 (some centres unmarked) [Novastan, argatroban hydrate] | No | No | Yes | Yes |  |  |  |
| O=C1CCc2cc(OCCCCc3nnnn3C3CCCCC3)ccc2N1 [Pletaal, cilostazol] | No | No | Yes | Yes |  |  |  |
| COc1cccc(CCc2ccccc2OCC(CN(C)C)OC(=O)CCC(=O)O)c1 (centres unmarked) [SAG, sarpogrelate] | Yes | Yes | Yes | Yes | 2 to 3 | 3 to 4 | appreciably but passingly alleviated |
| Heparin | No | No | No | Yes |  |  |  |
